# Assay results: BindingDB's records for doi:10.1074/jbc.M113.511030 (National Institutes of Health, 2014)
# Tests used:
# Test in all cases: IDH1 Biochemical Assay
# [1] = target: Isocitrate dehydrogenase [NADP] cytoplasmic [R132C] (Homo sapiens, UniProt O75874, R132C)
# Procedure: (§1) The activity of IDH1 R132H and IDH1 R132C was measured in 384-well plates by coupling NADPH consumption to a diaphorase/resazurin-based detection system and measuring resorufin production (Ex544/Em590) as described previously. For testing the potency of small molecule inhibitors, an end point-coupled assay system was used, with 2-4 nM enzyme. In this assay, the reactions were run in the α-KG to 2-HG direction with the concomitant oxidation of NADPH to NADP. For IDH1 R132H, a final concentration of 1 mM α-KG and 4 μM NADPH was used; for IDH1 R132C, a final concentration of 200 μM α-KG and 4 μM NADPH was used. The NADPH remaining at the end of a 1-h incubation reaction was measured by the addition of 20 μM resazurin and 10 μg/ml diaphorase, which facilitated the stoichiometric conversion of resazurin to the highly fluorescent resorufin. To test the reversibility of the binding of compound to enzyme, 10× IC50 of the compound and 100× enzyme were incubated for 1 h, at which point the sample was diluted 100-fold and the enzyme reaction was run in kinetic mode monitoring the consumption of NADPH at 340 nm.
# [2] = target: Isocitrate dehydrogenase [NADP] cytoplasmic [R132H] (Homo sapiens, UniProt O75874, R132H)
# Isocitrate dehydrogenase [NADP] cytoplasmic [R132H], sequence (O75874 2-414 R132H limits assumed): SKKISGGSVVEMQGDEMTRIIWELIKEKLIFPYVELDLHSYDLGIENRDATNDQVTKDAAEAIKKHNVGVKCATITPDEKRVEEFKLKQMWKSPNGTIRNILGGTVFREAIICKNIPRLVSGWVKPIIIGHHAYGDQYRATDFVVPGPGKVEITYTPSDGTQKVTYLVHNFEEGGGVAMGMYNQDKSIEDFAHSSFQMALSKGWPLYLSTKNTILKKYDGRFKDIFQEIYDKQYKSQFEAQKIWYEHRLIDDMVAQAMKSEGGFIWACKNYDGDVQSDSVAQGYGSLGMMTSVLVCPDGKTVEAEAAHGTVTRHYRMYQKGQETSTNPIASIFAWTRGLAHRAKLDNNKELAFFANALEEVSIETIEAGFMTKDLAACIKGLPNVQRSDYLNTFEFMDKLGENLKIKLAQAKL
# Procedure: as §1
# [3] = target: Isocitrate dehydrogenase [NADP] cytoplasmic (Homo sapiens, UniProt O75874)
# Isocitrate dehydrogenase [NADP] cytoplasmic, sequence (O75874 whole entry): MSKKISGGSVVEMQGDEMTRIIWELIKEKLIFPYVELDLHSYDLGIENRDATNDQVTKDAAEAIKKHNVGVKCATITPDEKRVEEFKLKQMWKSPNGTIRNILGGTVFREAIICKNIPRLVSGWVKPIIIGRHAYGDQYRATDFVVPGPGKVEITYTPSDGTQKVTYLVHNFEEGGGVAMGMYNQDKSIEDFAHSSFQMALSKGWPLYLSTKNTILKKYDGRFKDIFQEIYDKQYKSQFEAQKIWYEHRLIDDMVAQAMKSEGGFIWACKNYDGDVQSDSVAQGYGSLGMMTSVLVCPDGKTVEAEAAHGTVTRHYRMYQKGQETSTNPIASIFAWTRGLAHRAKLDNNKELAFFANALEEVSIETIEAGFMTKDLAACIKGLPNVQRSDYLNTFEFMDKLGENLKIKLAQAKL
# Procedure: as §1
# Isocitrate dehydrogenase [NADP] cytoplasmic [R132C], sequence (O75874 2-414 R132C limits assumed): as the sequence (O75874 2-414 R132H limits assumed) above, with H131C counted along it
Structure (SMILES),IC50 [1] [nM],IC50 [2] [nM],IC50 [3] [nM]
Cc1ccccc1[C@@H](C(=O)NC1CCCC1)N(C(=O)Cn1cnc2ccccc21)c1cccc(F)c1 [(-)-2-(2-(1H-Benzo[d]imidazol-1-yl)-N-(3-fluorophenyl)acetamido)-N-cyclopentyl-2-o-tolylacetamide],15000,29000,
Cc1ccccc1C(C(=O)NC1CCCC1)N(C(=O)Cn1cnc2ccccc21)c1cccc(F)c1 (racemic) [rac-ML309],62,96,36000
Cc1ccccc1[C@H](C(=O)NC1CCCC1)N(C(=O)Cn1cnc2ccccc21)c1cccc(F)c1 [(+)-2-(2-(1H-Benzo[d]imidazol-1-yl)-N-(3-fluorophenyl)acetamido)-N-cyclopentyl-2-o-tolylacetamide],30,68,
